Reference: US9452226B2, “Rodent model of central neuropathic pain caused by dorsal root entry zone avulsion at T13” (priority 2008, dated 2016)
“Also recorded” adds a separate entry of the source.

Assays:
[1] = tested on: rats with unilateral T13/L1 dorsal root avulsion; test: von Frey test after unilateral T13/L1 dorsal root avulsion, daily s.c. AV411 (Example 5); assay type: in vivo, rat
Experimental: The dorsal spinal cord was exposed by laminectomy at the T13/L1 spinal level. The T13 and L1 dorsal roots were each isolated, clamped at the dorsal root entry zone (DREZ) and briskly pulled out of the spinal cord as described above. AV411 was administered to animals avulsed at the T13 and L1 dorsal root entry zones. The compound AV411 was administered to animals subject to the T13 and L1 hind paws. […] The reversal begins after 5-6 injections and continues to reverse behavior until day 33. The contralateral paw began to resolve at day 28 and the ipsilateral paw was still sensitive at day 33. […] Response thresholds on the von Frey test were recorded prior to and across a timecourse after avulsion surgery. Beginning on Day 12 post-surgery, rats (n=4/group) received once daily s.c. injections of either the glial activation inhibitor AV411/Ibudilast (Sigma; 5-mg/kg or 10-mg/kg) or equivolume vehicle (corn oil; 0.5-ml/kg). Daily drug treatment and intermittent behavioral testing continued through 33 days after surgery.

[2] = tested on: rats having DREZs avulsed at T13/L1; test: von Frey allodynia test in T13/L1 DREZ avulsion rat model, intrathecal ibudilast (Example 2); assay type: in vivo; settings: intrathecally daily in corn oil carrier; unilateral (FIG. 2) or bilateral (FIG. 3) DREZ avulsion; vs sham controls receiving corn oil
Experimental: Rats were anesthetized using isoflurane. Under aseptic condition, the skin was incised in the midline along the posterior thoracolumbar region. The paravertebral muscles were retracted laterally to expose the posterior aspect of the spinal laminae. Laminectomies were performed and the dura mater then incised along the midline to expose the dorsal rootlets 10 of T13 and L1. The dorsal rootlets of T13 and L1 were then avulsed out of the spinal cord 15 on the left side using micronstrumentation 5 (see FIG. 4B). A visual defect 25 in pia and dorsal cord where the rootlets 10 were avulsed can be seen in FIG. 4B. The grey matter 30 of the spinal cord 15 is also shown. Hemostasis was obtained and a layer of gelfoam placed over the dura. The wound was closed in layers. Perioperative antibiotics were administered in prophylaxis against infection. Subject rats were tested for allodynia of the hindpaws with the von Frey hair test, beginning day one post surgery and continuing daily over the subsequent four weeks. Rat animal model was generated similar to above. In one experiment, DREZ avulsion was unilateral (FIG. 2). In one experiment, DREZ avulsion was bilateral (FIG. 3). Ibudilast was delivered intrathecally daily in a corn oil carrier, with sham controls receiving only the corn oil.

SMILES: CC(C)C(=O)c1c(C(C)C)nn2ccccc12 [AV411, 2-methyl-1-(2-propan-2-ylpyrazolo[1,5-a]pyridin-3-yl)propan-1-one]
- difference between the 5 mg and 10 mg dose ([1]; allodynia reversal, daily s.c.): not differences
- reversal of behavior continues until ([1]; days after surgery, daily s.c. treatment through day 33): 33 days
- effect on allodynia induced by avulsion (von Frey response thresholds) ([1]; once daily s.c. 5-mg/kg or 10-mg/kg from Day 12 post-surgery through day 33, vs corn oil vehicle): reversed allodynia; also recorded: reverses bilateral allodynia
- effect of administering AV411 on hind paw mechanical allodynia as printed ([1]; unilateral T13/L1 dorsal root avulsion, lasting upwards of 1.5 months): induces bilateral mechanical allodynia
- effect on allodynia in the model [2]: decreases allodynia
